Reference: paper PMC12297138, “Screening and Identification of Multiple Peptides Homologous to the Fusion Glycoprotein Gc of Schmallenberg Virus Able to Inhibit Viral Infection” (Transboundary and Emerging Diseases, 2025)

Columns and labels:
[1] = system: Schmallenberg virus (SBV); assay: Entry assay (temperature shift); assay type: cell-based; settings: for IC50: BHK-21 infected with SBV MOI 0.01 2 h at 4°C, then peptide 1 h at 37°C, plaque count; for SI, Entry: selectivity index CC50 value/IC50 value
Method: (§1) Two additional assays were performed. Peptide concentrations are the same as those used in the other treatments. Attachment assay: Cells were infected with the virus (MOI 0.01) and simultaneously each peptide was inoculated for 2 h at 4°C; then, cells were left in CMC for 72 h at 37°C. Entry assay: BHK-21 monolayer was infected with SBV (MOI 0.01) for 2 h at 4°C, followed by the treatment with each peptide for 1 h at 37°C; finally, CMC was added on cells. Similarly to other assays, at the end, viral plaques were observed.

[2] = system: Schmallenberg virus (SBV); assay: Cotreatment assay (plaque reduction); assay type: cell-based; settings: for percentage of viral inhibition at 100 μM (library screening): cotreatment, peptide 100 μM, SBV on BHK-21 cells, threshold 50% inhibition; for IC50: peptide + SBV (MOI 0.01) together on BHK-21 cells 2 h 37°C, plaques after 72 h, triplicate; for SI, Cotreatment: selectivity index CC50 value/IC50 value
From the text: Baby Hamster Kidney cells (BHK-21) (ATCC CCL-10, Manassas, VA, USA), Madin–Darby bovine kidney (MDBK, ATCC CCL-22), and Vero/hSLAM cells (ECACC 04091501, Porton Down, United Kingdom) were cultivated in Dulbecco's modified Eagle's medium (DMEM, Microtech, Naples, Italy) supplemented with 10% fetal bovine serum (FBS) (Microtech). Viruses were kindly provided by Professor Giuseppe Iovane (University Federico II, Naples, Italy). Cells were infected with a multiplicity of infection (MOI) of 0.01, and we assessed viral titers through plaque assays.
SBV titration was performed on BHK-21 cells. Briefly, BHK-21 cell monolayers in 12-well cell culture plates were infected with SBV dilutions. After 1 h of incubation, viral inocula were removed and a mixture of DMEM 10% FBS and 3% carboxymethyl cellulose (CMC) was added to all wells. After incubation for 72 h, cells were fixed with 4% formaldehyde solution and stained with 0,5% crystal violet (Sigma-Aldrich, St. Louis, MO, USA). Plaques were scored and stock virus titration was calculated as plaque forming unit (PFU)/ml.
Peptides were dissolved in water. To assess the impact of these peptides on inhibiting SBV infectivity, a very general assay (cotreatment) was performed by treating cells (5 × 10^5 cells/well) with peptides at 200, 100, 50, 25, 12.5, 6.25, and 1 μM and incubating them with the viral inoculum (MOI of 0.01) for 2 h at 37°C. To effectively inactivate nonpenetrated viruses, we treated cells with citrate buffer (pH 3.0) and then cultured BHK-21 for 72 h at 37°C/5% CO2 in DMEM enriched with 10% FBS and CMC. The monolayers were finally fixed and stained, and the plaque number was scored. The percentage of inhibition was calculated in comparison to the control group (cell infected and treated with no peptide).

[3] = system: Schmallenberg virus (SBV); assay: Virus pretreatment assay (plaque reduction); assay type: cell-based; settings: for IC50: peptide + SBV (MOI 0.1) 1 h 37°C, then diluted on BHK-21 cells (final MOI 0.01), plaques after 72 h; for SI, Virus pretreatment: selectivity index CC50 value/IC50 value
Method: (§2) Peptide concentrations are the same as used in the initial cotreatment assay. Virus pretreatment assay: peptides were added to the virus (MOI of 0.1) for 1 h at 37°C. Following the incubation period, the mixture of virus and peptide was diluted on cells for 2 h: this process allowed the peptides to achieve a nonactive concentration while ensuring that the virus remained at an optimal final MOI of 0.01. Then, the cells underwent a 72-h incubation with CMC. Cell pretreatment: Precooled cells were treated with the peptides for 1 h, followed by the incubation of the viral inoculum (MOI of 0.01) for 2 hr at 37°C. At the end, cells were overlaid with CMC for 72 hr at 37°C. Posttreatment: Cells were treated with peptide following the viral infection (MOI of 0.01 pfu/mL) for 2 h at 37°C; then, CMC was added for 72 h at 37°C. For each treatment, the IC50, which is the peptide concentration resulting in a 50% reduction of SBV infectivity, was calculated.

[4] = system: Schmallenberg virus (SBV); assay: Attachment assay (temperature shift); assay type: cell-based; settings: for IC50: BHK-21 cells, SBV MOI 0.01 and peptide simultaneously 2 h at 4°C, plaques after 72 h at 37°C; for SI, Attachment: selectivity index CC50 value/IC50 value
Method: as §1

[5] = system: Schmallenberg virus (SBV); assay: Posttreatment assay (plaque reduction); assay type: cell-based; settings: BHK-21 cells treated with peptide after SBV infection (MOI 0.01, 2 h 37°C); plaques after 72 h
Method: as §2

[6] = system: Schmallenberg virus (SBV); assay: Cell pretreatment assay (plaque reduction); assay type: cell-based; settings: precooled BHK-21 cells treated with peptide 1 h, then SBV MOI 0.01 for 2 h 37°C; plaques after 72 h
Method: as §2

BHK-21 cells = assay: MTT cytotoxicity assay; assay type: cell-based, Hamster; settings: 24 h treatment, peptides 1-200 µM, read at 570 nm, triplicate
Method: Peptide cytotoxicity was measured by 3- (4, 5-dimethylthiazol-2-yl)-2, 5-diphenyltetrazolium bromide (MTT) assay according to manufacturer's instructions (Sigma-Aldrich, St. Louis, Missouri, United States). BHK-21 cells (4 × 10^4 cells/well) were treated with peptides at different concentrations ranging from 1 µM to 200 and, after 24 h, 100 μL of the MTT solution (5 mg/mL) was incubated for 3 h at 37°C. Then, we used DMSO (Sigma Aldrich) to dissolve tetrazolium salts under agitation. Cytotoxicity was analyzed at 570 nm, and cell viability was measured against control cells—those that received no treatment. At the end, the 50% cytotoxic concentration (CC50) was determined using GraphPad Prism software (GraphPad Software, San Diego, CA, USA).

Structure (SMILES)	IC50 [1] [µM]	percentage of viral inhibition at 100 μM (library screening) [2]	IC50 [2] [µM]	IC50 [3] [µM]	IC50 [4] [µM]	SI, Entry [1]	SI, Cotreatment [2]	SI, Virus pretreatment [3]	IC50 [5] [µM]	SI, Attachment [4]	IC50 [6] [µM]	CC50 (BHK-21 cells) [µM]
CC[C@H](C)[C@H](NC(=O)[C@H](CC(=O)O)NC(=O)[C@H](CO)NC(=O)[C@H](CCC(N)=O)NC(=O)[C@H](CC(C)C)NC(=O)[C@H](C)NC(=O)[C@H](C)NC(=O)[C@@H](NC(=O)[C@H](Cc1ccc(O)cc1)NC(=O)[C@H](CC(N)=O)NC(=O)[C@H](CCC(=O)O)NC(=O)[C@@H](NC(=O)[C@H](CC(=O)O)NC(=O)[C@@H]1CCCN1C(=O)[C@H](Cc1c[nH]cn1)NC(=O)[C@@H](N)CC(N)=O)[C@@H](C)CC)[C@@H](C)CC)C(=O)N[C@@H](C)C(=O)N[C@@H](CC(N)=O)C(=O)N[C@@H](CC(=O)O)C(=O)N[C@@H](CC(C)C)C(=O)N[C@H](C(=O)N[C@@H](CCSC)C(=O)N[C@@H](Cc1c[nH]cn1)C(=O)N[C@@H](Cc1ccc(O)cc1)C(=O)N[C@@H](Cc1ccccc1)C(=O)O)[C@@H](C)O [Gc30]	20	greater than 50%	12.5	20	50	–	–	–	–	–	–	–
CC[C@H](C)[C@H](NC(=O)[C@@H](NC(=O)[C@H](CC(=O)O)NC(=O)[C@H](CCCCN)NC(=O)[C@H](CCCNC(=N)N)NC(=O)[C@H](CC(N)=O)NC(=O)[C@@H](N)Cc1ccccc1)C(C)C)C(=O)N[C@@H](CC(C)C)C(=O)N[C@@H](CCCNC(=N)N)C(=O)N[C@@H](CCCNC(=N)N)C(=O)N[C@@H](CS)C(=O)N[C@@H](Cc1ccccc1)C(=O)N[C@@H](CC(=O)O)C(=O)N[C@@H](CC(N)=O)C(=O)N[C@@H](CO)C(=O)N[C@@H](Cc1ccc(O)cc1)C(=O)N[C@@H](CCC(N)=O)C(=O)N[C@@H](CO)C(=O)N[C@@H](CS)C(=O)N[C@@H](CC(C)C)C(=O)N[C@@H](CC(C)C)C(=O)N[C@@H](CC(C)C)C(=O)N[C@@H](CCC(=O)O)C(=O)N[C@@H](CCC(N)=O)C(=O)N[C@@H](CC(=O)O)C(=O)O [Gc48]	–	–	–	–	–	4	2	4	> 100	2	> 100	–
CC[C@H](C)[C@H](NC(=O)[C@@H](NC(=O)[C@H](CC(C)C)NC(=O)[C@@H](NC(=O)[C@H](CC(N)=O)NC(=O)[C@H](CC(=O)O)NC(=O)[C@H](CCC(N)=O)NC(=O)[C@H](CCC(=O)O)NC(=O)[C@H](CC(C)C)NC(=O)[C@H](CC(C)C)NC(=O)[C@H](CC(C)C)NC(=O)[C@H](CS)NC(=O)[C@H](CO)NC(=O)[C@H](CCC(N)=O)NC(=O)[C@@H](N)Cc1ccc(O)cc1)[C@@H](C)O)[C@@H](C)O)C(=O)N[C@@H](C)C(=O)N[C@@H](CO)C(=O)N[C@H](C(=O)N[C@@H](CO)C(=O)N[C@@H](Cc1c[nH]cn1)C(=O)N[C@@H](CCSC)C(=O)N[C@@H](CCC(=O)O)C(=O)N[C@H](C(=O)N[C@@H](Cc1c[nH]cn1)C(=O)N[C@@H](CCCCN)C(=O)O)C(C)C)[C@@H](C)O [Gc49]	20	greater than 50%	10	10	25	–	–	–	–	–	–	200
CC[C@H](C)[C@H](NC(=O)[C@H](CO)NC(=O)[C@@H](N)Cc1ccc(O)cc1)C(=O)N[C@@H](CCCCN)C(=O)N[C@@H](CC(C)C)C(=O)N[C@@H](CC(N)=O)C(=O)N[C@@H](CS)C(=O)N1CCC[C@H]1C(=O)N[C@@H](CC(C)C)C(=O)N[C@@H](C)C(=O)N[C@H](C(=O)N[C@@H](CCC(=O)O)C(=O)N[C@H](C(=O)N[C@H](C(=O)N[C@@H](CO)C(=O)N[C@H](C(=O)N[C@@H](CO)C(=O)N[C@H](C(=O)N[C@@H](CS)C(=O)N[C@@H](CO)C(=O)N[C@@H](C)C(=O)N[C@@H](CO)C(=O)N[C@@H](C)C(=O)N[C@@H](Cc1ccc(O)cc1)C(=O)N[C@H](C(=O)O)[C@@H](C)O)C(C)C)C(C)C)C(C)C)[C@@H](C)O)[C@@H](C)O [Gc56]	40	greater than 50%	100	40	50	–	–	–	–	–	–	200
CC[C@H](C)[C@H](NC(=O)CNC(=O)[C@H](CCC(=O)O)NC(=O)[C@H](CCCCN)NC(=O)[C@H](Cc1ccc(O)cc1)NC(=O)[C@@H](NC(=O)[C@H](CCCNC(=N)N)NC(=O)[C@H](CS)NC(=O)[C@H](CC(C)C)NC(=O)[C@H](Cc1c[nH]c2ccccc12)NC(=O)[C@@H](NC(=O)[C@H](CO)NC(=O)[C@H](CS)NC(=O)[C@H](CCCCN)NC(=O)[C@H](CCCCN)NC(=O)[C@H](CC(=O)O)NC(=O)[C@H](Cc1c[nH]cn1)NC(=O)[C@H](CCC(N)=O)NC(=O)[C@H](CCC(=O)O)NC(=O)[C@@H](NC(=O)[C@@H](N)Cc1ccc(O)cc1)[C@@H](C)CC)[C@@H](C)O)C(C)C)C(=O)N[C@@H](CO)C(=O)N[C@H](C(=O)N[C@H](C(=O)N[C@@H](Cc1ccccc1)C(=O)O)[C@@H](C)CC)C(C)C [Gc59]	–	–	–	–	–	5.7	4	5	> 100	3.6	> 100	–
